Assay: PET/gamma counter biodistribution in healthy mice
Format: in vivo, C57BL/6 WT mice
Method: Next, biodistribution studies of compounds [^18F]1 and [^18F]2 were performed in female C57BL/6 WT mice. Dynamic (0–90 min), static (77–90 min), and late (240–260 min) scans were performed in a small animal PET scanner. Each PET scan was combined with computer tomography (CT). In the case of [^18F]2, […] of the tracer was excreted within the first 30 min via renal (19%ID) and hepatobiliary (60%ID, Figure 5A–C) routes. After 90 min, most of the tracer was found in the intestine, gallbladder, bladder (urine), and liver, while only 0.3 ± 0.1 %ID/mL of the radiosignal was detected in the blood at that time point (Figure 5B, C). Concentrations in the lung, heart, muscle, and brain were also relatively low. Nevertheless, during the first 3 min, the tracer was distributed within the whole body, reaching every tissue (Figure 5A).
The radiotracer [^18F]1 was injected into the tail vein, entered the heart, and was subsequently distributed throughout the whole body. […] Nearly no tracer accumulated in brain and urinary bladder, facilitating a favorable signal‐to‐noise ratio. We prolonged the imaging and performed an additional PET scan after 260 min to further increase the signal‐to‐background ratio. In all investigated residual organs (kidney, lung, heart, liver, and spleen), [^18F]1 was present even after 260 min, indicating a favorable biodistribution and high metabolic stability in vivo (Figure 5F).
Adult C57bl/6 (biodistribution study, 19.8±1.3 g) or tumor-bearing NSG mice (22.2±2.2 g) were anesthetized by isoflurane/O2, and one lateral tail vein was cannulated using a 27 G needle. A respective radiotracer (~ 390 kBq/g body weight) was injected as a bolus via the tail vein, and subsequent PET scanning was performed. A ~1000-fold excess of unlabeled JMS0414 (14 for [^18F]MRS-4648 ([^18F]2)), unlabeled PSB-19427 (1), or PSB-12651 (15) (for [^18F]PSB-19427 ([^18F]1)) was injected into a subgroup of tumor-bearing mice 10 min before radiotracer injection in the blocking studies. PET imaging studies were carried out using a submillimeter high resolution (0.7 mm full width at half-maximum) small animal scanner (32 module quadHIDAC, Oxford Positron Systems Ltd., Oxford, UK) with a uniform spatial resolution (<1 mm) over a large cylindrical field (165 mm diameter, 280 mm axial length). List-mode data were acquired for 90 min and reconstructed into dynamic time frames using an iterative reconstruction algorithm. In a subgroup of mice, measurements were complemented by late time point PET scans for 20 min 4 h after injection. Subsequently, after PET acquisitions, the scanning bed was transferred to the computed tomography (CT) scanner (Inveon, Siemens Medical Solutions, U.S.), and a CT acquisition with a spatial resolution of 80 μm was performed for each mouse. Final acquisitions were performed as contrast-enhanced CT with i.v. injection of iopromid (Ultravist®370). Reconstructed image data sets were coregistered based on extrinsic markers attached to the multimodal scanning bed, and the in-house developed image analysis software MEDgical (EIMI) was used for quantification. Three-dimensional volumes of interest (VOIs) were defined over the respective organs in CT data sets, transferred to the coregistered PET data, and analyzed quantitatively. Regional uptake was calculated as the percentage of injected dose by dividing counts per min (cpm) in the VOI by total counts in the mouse multiplied by 100 (%ID/mL). The clearance of the radiotracers was calculated based on the PET results. PET imaging studies using [^18F]FDG were performed analogously with a few variations. List-mode data were acquired for 60-75 min after tracer injection and reconstructed using an iterative reconstruction algorithm. Additionally, the scanned mice remained alive after PET and CT scans and were used the next day for imaging experiments with [^18F]PSB-19427 ([^18F]1) for direct comparison of [^18F]FDG and [^18F]PSB-19427 ([^18F]1). […]

Hepatobiliary excretion route (at 90 min p.i.)	Radiosignal proportion in the blood (at 90 min p.i.)	Renal excretion route (time not given)	Radiosignal in blood (after 90 min)	Hepatobiliary excretion (within the first 30 min)	Renal excretion (within the first 30 min)	Fraction of tracer excreted (within the first 30 min, i.v., female C57BL/6 WT mice)	SMILES
37 %ID	18.2% ± 1.7 %ID/g	2 %ID					CCCN(Cc1ccc(-c2cn(CC[18F])nn2)cc1)c1nc(Cl)nc2c1ncn2[C@@H]1O[C@H](COP(=O)(O)CP(=O)(O)O)[C@@H](O)[C@H]1O [[^18F]1, [^18F]-[((2R,3S,4R,5R)-5-{2-chloro-6-[(4-{1-[2-(fluoro)ethyl]-1H-1,2,3-triazol-4-yl}benzyl)-(propyl)amino]-9H-purin-9-yl}-3,4-dihydroxytetrahydrofuran-2-yl)methoxy]methylene-bisphosphonic acid]
			0.3 ± 0.1 %ID/mL	60 %ID	19 %ID	> 95%	Cn1c(=O)n([C@@H]2O[C@H](COP(=O)(O)CP(=O)(O)O)[C@@H](O)[C@H]2O)cc/c1=N/OCc1ccc(-c2cn(CC[18F])nn2)cc1 [[^18F]2, [^18F]-{[(2R,3S,4R,5R)-5-(4-{[(4-{1-[2-(fluoro)ethyl]-1H-1,2,3-triazol-4-yl}benzyl)-oxy]imino}-3-methyl-2-oxo-3,4-dihydropyrimidin-1(2H)-yl)-3,4-dihydroxytetra-hydrofuran-2-yl]methoxy}methylenebisphosphonic acid]

Reference: article PMC13077603, “Fluorine‐18‐Labeled Nucleotide Analogs Targeting Ecto‐5'‐Nucleotidase (CD73) for Positron Emission Tomography Imaging of Solid Tumors” (Angewandte Chemie (International Ed. in English), 2026)
